This is an account of results in US20210087593A1, “N-[…] ALKALOID COMPOUNDS” (Willow BioSciences Inc., priority 2017, published 2021).

One assay deals with EsNMT. Nature of the assay: N-alkylation substrate screen using EsNMT (LC-MS). The format is biochemical, Ephedra sinica. Also on record: key to N-alkylation of substrate alkaloid compounds, Enzyme EsNMT: −=no detectable quantities of product N-alkylated compound; Trace, +, ++, +++=increasing relative levels of product N-alkylated compound; Trace, +, ++, +++=increasing relative levels of product N-alkylated compound; Trace, +, ++, +++=increasing relative levels of product N-alkylated compound; Trace, +, ++, +++=increasing relative levels of product N-alkylated compound. The conditions noted are these: for N-alkylation of substrate alkaloid compounds, Enzyme EsNMT: 25 μg protein, 1 mM substrate, 1 mM SAM, 60 mM HEPES pH 8, 16 hours at 37° C., relative level of N-alkylated product by LC-MS; for N-alkylated alkaloid product detected after incubation with EsNMT (SEQ. ID NO: 2): incubated in accordance with Example 1, LC-MS. How it is done:
The EsNMT coding sequence was amplified from Ephedra sinica cDNA using gene-specific primers containing restriction sites with Q5 HiFi DNA polymerase (NEB). Restriction digests and ligations (NEB) were carried out to generate a pQE plasmid (Qiagen) for heterologous expression of HIS6-tagged recombinant EsNMT. Protein overexpression was carried out at 18° C. in Escherichia coli SG13009 (Qiagen) grown in lysogeny broth (LB) to which 0.5 mM isopropyl β-D-1-thiogalactopyranoside (IPTG) was added.
(§1) Total soluble protein was extracted from each culture and the recombinant NMTs were purified using TALON cobalt affinity resin (Clontech) followed by desalting and concentration with Amicon Ultra-30 centrifugal filters (EMD Millipore). Protein concentration was determined using the Bradford method, and purity was assessed by SDS-PAGE followed by Coomassie staining.
(§2) Forty-four nitrogenous molecules were screened as potential substrates for EsNMT using a standardized assay (25 μg protein, 1 mM substrate, 1 mM SAM, 60 mM HEPES pH 8, 16 hours at 37° C.). In addition, a representative subset was screened as potential substrates for GfCNMT, GfTNMT and PsRNMT under identical conditions. For each substrate and enzyme combination, negative control assays were carried out using protein heated to 100° C. (boiled) for 20 minutes. Assays were quenched with 9 volumes of methanol, centrifuged to pellet insoluble debris and the supernatants were stored at −20° C. prior to analysis.
(§3) Assay supernatants were analyzed by liquid chromatography-mass spectrometry (LC-MS). LC-MS analysis was performed using a 1200 HPLC coupled with a 6410 triple-quadrupole MS (Agilent). Samples (2 μl) were injected onto a Luna […] Phenyl-Hexyl 100 Å HPLC column and analytes were eluted in a gradient of solvent A (0.1% Formic acid, 5% v/v methanol in water) and solvent B (0.1% Formic acid in methanol) at a flow rate of 300 μl per minute. The gradient began at 0% B, reached 35% B by 12 minutes, then increased to 85% B at 14 min and remained at that level until 18 minutes. Subsequently, the mixture returned to 0% B over a period of 3 minutes before a final 6 minute re-equilibration period. Analytes were applied to the mass analyzer using an electrospray ionization probe operating in positive mode with the following condition: capillary voltage, 4000V; fragmentor voltage, 100V, source temperature, 350° C.; nebulizer pressure, 50 PSI; gas flow 10 L/min. Ions were detected in full scan mode where quadrupoles 1 and 2 were set to RF only, whereas the third quadrupole scanned from 100-500 m/z over 525 milliseconds. Substrate acceptance by the enzymes was determined according to the formation of a peak with a 14-m/z increase in mass, corresponding to methylated substrate and a decrease in the substrate peak area, relative to the appropriate boiled control assay.
(§4) Each of the alkaloid substrates shown in Table 1 were incubated with the following N-alkyltransferases: GfCNMT (SEQ. ID NO: 3), gfTNMT (SEQ. ID NO: 4) and Ps RNMT ([…]) and EsNMT (SEQ. ID NO: 2), as described in Example 1. The presence of N-alkylated alkaloid product was detected as described in Examples 1-20. Legend: ND=Not Determined; −=no detectable quantities of product N-alkylated compound; and Trace, +, ++, +++=increasing relative levels of product N-alkylated compound.

In a further assay the test system is GfCNMT. Nature of the assay: N-alkylation substrate screen using GfCNMT (LC-MS). The format is biochemical, Glaucium flavum. Also noted: key: −=no detectable quantities of product N-alkylated compound; Trace, +, ++, +++=increasing relative levels of product N-alkylated compound; Trace, +, ++, +++=increasing relative levels of product N-alkylated compound; Trace, +, ++, +++=increasing relative levels of product N-alkylated compound; Trace, +, ++, +++=increasing relative levels of product N-alkylated compound. Particulars: 25 μg protein, 1 mM substrate, 1 mM SAM, 60 mM HEPES pH 8, 16 hours at 37° C.; relative level of N-alkylated product by LC-MS. Here is the method: (§5) The GfCNMT, GfTNMT and PsRNMT coding sequences were amplified from Glaucium flavum (GfCNMT and GfTNMT) or Papaver somniferum (PsRNMT) cDNA using gene-specific primers containing attB recombination sites with Q5 HiFi DNA polymerase (NEB). Recombination reactions were carried out using BP and LR Clonase II (Thermo Scientific) to generate individual pDONR221 entry plasmids and, subsequently, individual pHGWA plasmids for heterologous expression of polyhistidine (HIS6)-tagged recombinant GfCNMT, GfTNMT and PsRNMT. Protein overexpression was carried out at 18° C. using E. coli ArcticExpress (Agilent) grown in Studier's autoinduction media.
as §1, §2, §3, §4

The test system of another assay is PsRNMT. Nature of the assay: N-alkylation substrate screen using PsRNMT (LC-MS). It counts as biochemical, Papaver somniferum. Also noted: key: −=no detectable quantities of product N-alkylated compound; Trace, +, ++, +++=increasing relative levels of product N-alkylated compound; Trace, +, ++, +++=increasing relative levels of product N-alkylated compound; Trace, +, ++, +++=increasing relative levels of product N-alkylated compound; Trace, +, ++, +++=increasing relative levels of product N-alkylated compound. Particulars: 25 μg protein, 1 mM substrate, 1 mM SAM, 60 mM HEPES pH 8, 16 hours at 37° C.; relative level of N-alkylated product by LC-MS. How it is done: as §5, §1, §2, §3, §4

Take `CC(N)c1ccccc1` (stereo not shown) [1-Phenylethaneamine, 1-phenylethan-1-amine]: in the assay on EsNMT, the “N-alkylation of substrate alkaloid compounds, Enzyme EsNMT” value (“N-alkylation … Enzyme EsNMT” below) is reported as “−” and the “N-alkylated alkaloid product detected after incubation with EsNMT (SEQ. ID NO: 2)” value is “No N-alkylated alkaloid product compounds were detected”. Taken in the same sequence, the figures for `N[C@@H](Cc1ccc(O)c(O)c1)C(=O)O` [3,4-dihydroxyphenylalanine] were “−” and “No N-alkylated alkaloid product compounds were detected”.

As for `Nc1ncnc2nc[nH]c12` [Adenine, adenine], in the assay on EsNMT, the “N-alkylation … Enzyme EsNMT” value was “−” and the “N-alkylated alkaloid product detected after incubation with EsNMT (SEQ. ID NO: 2)” value is “No N-alkylated alkaloid product compounds were detected”. Taken in the same sequence, the figures for `Nc1ccccc1C(=O)O` [Anthrallic acid, anthranilic acid] were “−” and “No N-alkylated alkaloid product compounds were detected”. The corresponding values for `NCc1ccccc1` [Benzylamine, benzylamine] are “−” and “No N-alkylated alkaloid product compounds were detected”. Consider `C[C@H](N)C(=O)c1ccccc1` [Cathinone, cathinone], for which the “N-alkylation … Enzyme EsNMT” value with EsNMT is listed as “+”. `NCCc1ccc(O)c(O)c1` [Dopamine, dopamine]: in the assay on EsNMT, the “N-alkylation … Enzyme EsNMT” value was “−” and the “N-alkylated alkaloid product detected after incubation with EsNMT (SEQ. ID NO: 2)” value was “No N-alkylated alkaloid product compounds were detected”. With `CN[C@@H](C)[C@H](O)c1ccccc1` [Ephedrine, ephedrine, reference compound], in the assay with EsNMT, the “N-alkylation … Enzyme EsNMT” value is given as “+”. The “N-alkylation of substrate alkaloid compounds, Enzyme GfCNMT” value in the assay with GfCNMT is listed as “−”. In the assay with PsRNMT, the “N-alkylation of substrate alkaloid compounds, Enzyme PsRNMT” value is “−”. Take `CC[C@@H]1CN2CCc3c([nH]c4cccc(OC)c34)[C@@H]2C[C@@H]1/C(=C\OC)C(=O)OC` [Mitragynine, mitragynine]: in the assay with EsNMT, the “N-alkylation … Enzyme EsNMT” value was “−” and the “N-alkylated alkaloid product detected after incubation with EsNMT (SEQ. ID NO: 2)” value is recorded as “No N-alkylated alkaloid product compounds were detected”. Take `CNC(C)C(=O)c1ccccc1` (stereo not shown) [N-Methyl-cathinone, N-methyl-cathinone]: the “N-alkylation … Enzyme EsNMT” value with EsNMT is given as “+”. `Oc1ccc(CC2NCCc3cc(O)c(O)cc32)cc1O` (stereo not shown) [Norlaudanosoline, norlaudanosoline]: in the assay on EsNMT, the “N-alkylation … Enzyme EsNMT” value was “−” and the “N-alkylated alkaloid product detected after incubation with EsNMT (SEQ. ID NO: 2)” value is reported as “No N-alkylated alkaloid product compounds were detected”.

With `C[C@H](N)[C@@H](O)c1ccccc1` [Norpseudoephedrine, norpseudoephedrine], the “N-alkylation … Enzyme EsNMT” value with EsNMT was “+”. As to `NCC(O)c1ccc(O)cc1` (stereo not shown) [Octopamine, octopamine], in the assay with EsNMT, the “N-alkylation … Enzyme EsNMT” value is on record as “−” and the “N-alkylated alkaloid product detected after incubation with EsNMT (SEQ. ID NO: 2)” value is “No N-alkylated alkaloid product compounds were detected”.

Regarding `COc1ccc(Cc2nccc3cc(OC)c(OC)cc23)cc1OC` [Papaverine, papaverine, reference compound], the “N-alkylation … Enzyme EsNMT” value in the assay with EsNMT is recorded as “Trace”. Same read-out and setting: with `CC(C)(N)Cc1ccccc1` [Phentermine, phentermine, reference compound] the entry was “+”. For the compound `N[C@@H](Cc1ccccc1)C(=O)O` [Phenylalanine, phenylalanine], in the assay with EsNMT, the “N-alkylation … Enzyme EsNMT” value is “−” and the “N-alkylated alkaloid product detected after incubation with EsNMT (SEQ. ID NO: 2)” value is “No N-alkylated alkaloid product compounds were detected”.

For the compound `CN[C@@H](C)[C@@H](O)c1ccccc1` [Pseudoephedrine, pseudoephedrine, reference compound], the “N-alkylation … Enzyme EsNMT” value with EsNMT is given as “+”.

On to `CNCC(O)c1ccc(O)cc1` (stereo not shown) [Synephrine, synephrine], for which the “N-alkylation … Enzyme EsNMT” value with EsNMT is recorded as “+”. On to `CC1NCCc2cc(O)c(O)cc21` (stereo not shown) [THQ1, 1-methyl-6,7-dihydroxy-1,2,3,4-tetrahydroisoquinoline], for which the “N-alkylation … Enzyme EsNMT” value in the assay with EsNMT was “+”.

`NCCS(=O)(=O)O` [Taurine, taurine]: in the assay on EsNMT, the “N-alkylation … Enzyme EsNMT” value is on record as “−” and the “N-alkylated alkaloid product detected after incubation with EsNMT (SEQ. ID NO: 2)” value is reported as “No N-alkylated alkaloid product compounds were detected”. The corresponding values for `Cn1cnc2c1c(=O)[nH]c(=O)n2C` [Theobromine, theobromine] are “−” and “No N-alkylated alkaloid product compounds were detected”. Taken in the same sequence, the figures for `CN1[C@@H]2CC[C@H]1CC(=O)C2` [Tropinone, tropinone] were “−” and “No N-alkylated alkaloid product compounds were detected”.

As for `N[C@@H](Cc1c[nH]c2ccccc12)C(=O)O` [Tryptophan, tryptophan], in the assay on EsNMT, the “N-alkylation … Enzyme EsNMT” value is “−” and the “N-alkylated alkaloid product detected after incubation with EsNMT (SEQ. ID NO: 2)” value is “No N-alkylated alkaloid product compounds were detected”.

In the case of `N[C@@H](Cc1ccc(O)cc1)C(=O)O` [Tyrosine, tyrosine], in the assay with EsNMT, the “N-alkylation … Enzyme EsNMT” value is on record as “−” and the “N-alkylated alkaloid product detected after incubation with EsNMT (SEQ. ID NO: 2)” value is listed as “No N-alkylated alkaloid product compounds were detected”.

Turning to `O=c1[nH]c(=O)c2ncn([C@@H]3O[C@H](CO)[C@@H](O)[C@H]3O)c2[nH]1` [Xanthosine, xanthosine], in the assay with EsNMT, the “N-alkylation … Enzyme EsNMT” value is listed as “−” and the “N-alkylated alkaloid product detected after incubation with EsNMT (SEQ. ID NO: 2)” value is reported as “No N-alkylated alkaloid product compounds were detected”.

With `CN(C)c1ccc(C=O)cc1` [p-dimethylaminobenzaldehyde], in the assay on EsNMT, the “N-alkylation … Enzyme EsNMT” value is “−” and the “N-alkylated alkaloid product detected after incubation with EsNMT (SEQ. ID NO: 2)” value was “No N-alkylated alkaloid product compounds were detected”. Take methylephedrine: the “N-alkylation … Enzyme EsNMT” value in the assay with EsNMT is recorded as “+”.
